# Earlier results in US5179102A, “Naphthyridinyl/naphthyridinylalkyl-n-terminal anino hydroxy β-amino acid derivatives” (G. D. Searle & Co., priority 1991, dated 1993).
# Square brackets hold non-standard residues; d marks the D form. Peptide text beside a SMILES is read from it. * marks the point of attachment. Sta = CC(C)C[C@H](N)[C@@H](O)CC(=O)O; Isovaleryl = CC(C)CC(=O)*
# Tested on: hog renin
# Conditions: after the injection of hog renin into nephrectomized rats
structure (smiles),measurement,value
CC(C)CC(=O)N[C@H](C(=O)N[C@H](C(=O)N[C@@H](CC(C)C)[C@@H](O)CC(=O)N[C@@H](C)C(=O)N[C@@H](CC(C)C)[C@@H](O)CC(=O)O)C(C)C)C(C)C [pepstatin] (Isovaleryl-VV[Sta]A[Sta]-OH),reduce blood pressure in vivo,found to reduce blood pressure in vivo
